Test results taken from US12391648B2, “Pyridyloxy thioester derivative and preparation method therefor, herbicidal composition, and application” (Qingdao Kingagroot Chemical Compound Co., Ltd., priority 2018, dated 2025).

What was measured:
Experiment in all cases: Post-emergence test experiment (Table 3, 1000 g/ha)
Format in all cases: in vivo
Conditions in all cases: post-emergence spray, after 3 weeks, fresh weight inhibition
[1] = system: Leptochloa chinensis
In short: (§1)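 Weed seeds sown in soil-filled pots in greenhouse, sprayed at 2-3 leaf stage (2 weeks after sowing) with compound in acetone/tween-80 plus methyl oleate emulsible concentrate (1.5 L/ha) diluted in water. Fresh-weight growth inhibition scored after 3 weeks on 0-5 scale (5: >85%, 0: <5%).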

[2] = system: Setaria viridis
In short: as §1

[3] = system: Digitaria sanguinalis
In short: as §1

[4] = system: Galium spurium
In short: as §1

[5] = system: Abutilon theophrasti
In short: as §1

[6] = system: Monochoria vaginalis
In short: as §1

Cc1cc(SC(=O)C(C)Oc2nc(F)c(Cl)c(N)c2Cl)n(C)n1 (stereo not drawn) [Compound 117]
Activity level (growth inhibition rate) Leptochloa chinensis [1]: 5 (Level 5: the growth inhibition rate is greater than 85%)
Activity level (growth inhibition rate) Setaria viridis [2]: 5 (Level 5: the growth inhibition rate is greater than 85%)
Activity level (growth inhibition rate) Digitaria sanguinalis [3]: 5 (Level 5: the growth inhibition rate is greater than 85%)
Activity level (growth inhibition rate) Galium spurium [4]: 5 (Level 5: the growth inhibition rate is greater than 85%)
Activity level (growth inhibition rate) Abutilon theophrasti [5]: 5 (Level 5: the growth inhibition rate is greater than 85%)
Activity level (growth inhibition rate) Monochoria Vaginalis [6]: 5 (Level 5: the growth inhibition rate is greater than 85%)

CCCCCCCSC(=O)C(C)Oc1nc(F)c(Cl)c(N)c1Cl (stereo not drawn) [Compound 139]
Activity level (growth inhibition rate) Leptochloa chinensis [1]: 5 (Level 5: the growth inhibition rate is greater than 85%)
Activity level (growth inhibition rate) Setaria viridis [2]: 5 (Level 5: the growth inhibition rate is greater than 85%)
Activity level (growth inhibition rate) Digitaria sanguinalis [3]: 5 (Level 5: the growth inhibition rate is greater than 85%)
Activity level (growth inhibition rate) Galium spurium [4]: 5 (Level 5: the growth inhibition rate is greater than 85%)
Activity level (growth inhibition rate) Abutilon theophrasti [5]: 5 (Level 5: the growth inhibition rate is greater than 85%)
Activity level (growth inhibition rate) Monochoria Vaginalis [6]: 5 (Level 5: the growth inhibition rate is greater than 85%)

C#CCSC(=O)C(C)Oc1nc(F)c(Cl)c(N)c1Cl (stereo not drawn) [Compound 90]
Activity level (growth inhibition rate) Leptochloa chinensis [1]: 5 (Level 5: the growth inhibition rate is greater than 85%)
Activity level (growth inhibition rate) Setaria viridis [2]: 5 (Level 5: the growth inhibition rate is greater than 85%)
Activity level (growth inhibition rate) Digitaria sanguinalis [3]: 5 (Level 5: the growth inhibition rate is greater than 85%)
Activity level (growth inhibition rate) Galium spurium [4]: 5 (Level 5: the growth inhibition rate is greater than 85%)
Activity level (growth inhibition rate) Abutilon theophrasti [5]: 5 (Level 5: the growth inhibition rate is greater than 85%)
Activity level (growth inhibition rate) Monochoria Vaginalis [6]: 5 (Level 5: the growth inhibition rate is greater than 85%)

CC(Oc1nc(F)c(Cl)c(N)c1Cl)C(=O)Sc1cccc(N(C)C)c1 (stereo not drawn) [Compound 109]
Activity level (growth inhibition rate) Leptochloa chinensis [1]: 5 (Level 5: the growth inhibition rate is greater than 85%)
Activity level (growth inhibition rate) Setaria viridis [2]: 5 (Level 5: the growth inhibition rate is greater than 85%)
Activity level (growth inhibition rate) Digitaria sanguinalis [3]: 5 (Level 5: the growth inhibition rate is greater than 85%)
Activity level (growth inhibition rate) Galium spurium [4]: 5 (Level 5: the growth inhibition rate is greater than 85%)
Activity level (growth inhibition rate) Abutilon theophrasti [5]: 5 (Level 5: the growth inhibition rate is greater than 85%)
Activity level (growth inhibition rate) Monochoria Vaginalis [6]: 5 (Level 5: the growth inhibition rate is greater than 85%)

CCC(CC)SC(=O)C(C)Oc1nc(F)c(Cl)c(N)c1Cl (stereo not drawn) [Compound 150]
Activity level (growth inhibition rate) Leptochloa chinensis [1]: 5 (Level 5: the growth inhibition rate is greater than 85%)
Activity level (growth inhibition rate) Setaria viridis [2]: 5 (Level 5: the growth inhibition rate is greater than 85%)
Activity level (growth inhibition rate) Digitaria sanguinalis [3]: 5 (Level 5: the growth inhibition rate is greater than 85%)
Activity level (growth inhibition rate) Galium spurium [4]: 5 (Level 5: the growth inhibition rate is greater than 85%)
Activity level (growth inhibition rate) Abutilon theophrasti [5]: 5 (Level 5: the growth inhibition rate is greater than 85%)
Activity level (growth inhibition rate) Monochoria Vaginalis [6]: 5 (Level 5: the growth inhibition rate is greater than 85%)

CSC(=O)C(C)Oc1nc(F)c(Cl)c(N)c1C (stereo not drawn) [Compound 20]
Activity level (growth inhibition rate) Leptochloa chinensis [1]: 5 (Level 5: the growth inhibition rate is greater than 85%)
Activity level (growth inhibition rate) Setaria viridis [2]: 5 (Level 5: the growth inhibition rate is greater than 85%)
Activity level (growth inhibition rate) Digitaria sanguinalis [3]: 5 (Level 5: the growth inhibition rate is greater than 85%)
Activity level (growth inhibition rate) Galium spurium [4]: 5 (Level 5: the growth inhibition rate is greater than 85%)
Activity level (growth inhibition rate) Abutilon theophrasti [5]: 5 (Level 5: the growth inhibition rate is greater than 85%)
Activity level (growth inhibition rate) Monochoria Vaginalis [6]: 5 (Level 5: the growth inhibition rate is greater than 85%)

COCCSC(=O)C(C)Oc1nc(F)c(Cl)c(N)c1Cl (stereo not drawn) [Compound 85]
Activity level (growth inhibition rate) Leptochloa chinensis [1]: 5 (Level 5: the growth inhibition rate is greater than 85%)
Activity level (growth inhibition rate) Setaria viridis [2]: 5 (Level 5: the growth inhibition rate is greater than 85%)
Activity level (growth inhibition rate) Digitaria sanguinalis [3]: 5 (Level 5: the growth inhibition rate is greater than 85%)
Activity level (growth inhibition rate) Galium spurium [4]: 5 (Level 5: the growth inhibition rate is greater than 85%)
Activity level (growth inhibition rate) Abutilon theophrasti [5]: 5 (Level 5: the growth inhibition rate is greater than 85%)
Activity level (growth inhibition rate) Monochoria Vaginalis [6]: 5 (Level 5: the growth inhibition rate is greater than 85%)

CC(C)CCSC(=O)C(C)Oc1nc(F)c(Cl)c(N)c1Cl (stereo not drawn) [Compound 146]
Activity level (growth inhibition rate) Leptochloa chinensis [1]: 5 (Level 5: the growth inhibition rate is greater than 85%)
Activity level (growth inhibition rate) Setaria viridis [2]: 5 (Level 5: the growth inhibition rate is greater than 85%)
Activity level (growth inhibition rate) Digitaria sanguinalis [3]: 5 (Level 5: the growth inhibition rate is greater than 85%)
Activity level (growth inhibition rate) Galium spurium [4]: 5 (Level 5: the growth inhibition rate is greater than 85%)
Activity level (growth inhibition rate) Abutilon theophrasti [5]: 5 (Level 5: the growth inhibition rate is greater than 85%)
Activity level (growth inhibition rate) Monochoria Vaginalis [6]: 5 (Level 5: the growth inhibition rate is greater than 85%)

CC(C)CSC(=O)C(C)Oc1nc(F)c(Cl)c(N)c1Cl (stereo not drawn) [Compound 133]
Activity level (growth inhibition rate) Leptochloa chinensis [1]: 5 (Level 5: the growth inhibition rate is greater than 85%)
Activity level (growth inhibition rate) Setaria viridis [2]: 5 (Level 5: the growth inhibition rate is greater than 85%)
Activity level (growth inhibition rate) Digitaria sanguinalis [3]: 5 (Level 5: the growth inhibition rate is greater than 85%)
Activity level (growth inhibition rate) Galium spurium [4]: 5 (Level 5: the growth inhibition rate is greater than 85%)
Activity level (growth inhibition rate) Abutilon theophrasti [5]: 5 (Level 5: the growth inhibition rate is greater than 85%)
Activity level (growth inhibition rate) Monochoria Vaginalis [6]: 5 (Level 5: the growth inhibition rate is greater than 85%)

CCCCCCCCCCCCSC(=O)C(C)Oc1nc(F)c(Cl)c(N)c1Cl (stereo not drawn) [Compound 143]
Activity level (growth inhibition rate) Leptochloa chinensis [1]: 5 (Level 5: the growth inhibition rate is greater than 85%)
Activity level (growth inhibition rate) Setaria viridis [2]: 5 (Level 5: the growth inhibition rate is greater than 85%)
Activity level (growth inhibition rate) Digitaria sanguinalis [3]: 5 (Level 5: the growth inhibition rate is greater than 85%)
Activity level (growth inhibition rate) Galium spurium [4]: 5 (Level 5: the growth inhibition rate is greater than 85%)
Activity level (growth inhibition rate) Abutilon theophrasti [5]: 5 (Level 5: the growth inhibition rate is greater than 85%)
Activity level (growth inhibition rate) Monochoria Vaginalis [6]: 5 (Level 5: the growth inhibition rate is greater than 85%)

CC(Oc1nc(F)c(Cl)c(N)c1Cl)C(=O)SCC(=O)N(C)C (stereo not drawn) [Compound 99]
Activity level (growth inhibition rate) Leptochloa chinensis [1]: 5 (Level 5: the growth inhibition rate is greater than 85%)
Activity level (growth inhibition rate) Setaria viridis [2]: 5 (Level 5: the growth inhibition rate is greater than 85%)
Activity level (growth inhibition rate) Digitaria sanguinalis [3]: 5 (Level 5: the growth inhibition rate is greater than 85%)
Activity level (growth inhibition rate) Galium spurium [4]: 5 (Level 5: the growth inhibition rate is greater than 85%)
Activity level (growth inhibition rate) Abutilon theophrasti [5]: 5 (Level 5: the growth inhibition rate is greater than 85%)
Activity level (growth inhibition rate) Monochoria Vaginalis [6]: 5 (Level 5: the growth inhibition rate is greater than 85%)
